Results on two compounds are retold here after patent publication US20230372296A1, “COMPOSITIONS AND METHODS FOR ANXIETY DISORDER TREATMENT” (PSILOBRAIN THERAPEUTICS INC., priority 2020, published 2023).

The subject of this test is C57BL/6 mice. The experiment in a line: elevated plus maze model of anxiety disorder. In kind it is in vivo. The source says:
The dosage ranges are based upon our preclinical rodent studies testing the anti-anxiety effects of formula (I) and crocin (across varying doses and combinations) on mouse behavior in the elevated plus maze task (see FIG. 1). The elevated plus maze is one of the most widely used tests for measuring anxiety-like behavior and the anti-anxiety effects of pharmacological agents and is based on the natural aversion of mice for open and elevated areas, as well as their natural spontaneous exploratory activity in novel environments. […] Finally, these dosage ranges, as identified from our preclinical studies are commensurate with clinical dosages safely prescribed in humans.
The elevated plus maze model is a behavioral assay for rodents which has been used to assess the […] effect of pharmacological agents. In the model, anxiety behavior of rodents is assessed by determining the ratio of time spent on the arms relative to the time spent in the closed arms of the elevated plus maze structure. The model relies on rodents' affinity to dark, enclosed spaces.
In the elevated plus model, C57BL/6 mice, aged between 6 and 7 weeks were acclimated for at least five days and assigned randomly to treatment groups. Mice were housed on a 12 hour light/dark cycle. No more than 4 mice were kept in each ventilated cage. Mice were provided with standard rodent chow and water ad libitum. Test compounds were administered through the oral route in a volume of 10 milliliters per kilogram (ml/kg) and were formulated in 0.9% saline. 12 groups of mice were tested in the model, each group consisting of 10 mice. After acclimation, test compositions were administered to the animals in the amounts, in milligram per kilogram of mouse weight (mg/kg) according to table 1.
As shown in the table, Group 1 was administered vehicle only. Groups 2 through 7 were administered various combinations of psilocybin and crocin. Groups 8-12 were administered either psilocybin alone or crocin alone. Behavioral testing was performed between 7-9 days after administration of the compounds.
Testing was performed in dim light of 40 lux. The elevated plus maze consists of two open and two closed arms (arm length: 30 cm; width: 5 cm). Open arms have a small 1 cm edge and the closed arms are bordered by a 15 cm wall. At the beginning of the task, mice were placed in the center of the elevated plus maze facing an open arm. Mice were video tracked while exploring the maze for 5 min. The time spent in the open and closed arms was measured and analyzed.
Comparisons were performed using 1 w-ANOVA, Fisher's LSD test. Significance is shown with a single asterisk if P<0.05, with a double asterisk if P<0.01, and with a triple asterisk if P<0.001.

With `CN(C)CCc1c[nH]c2cccc(OP(=O)(O)O)c12` [psilocybin, Psilocybin], the “time in open arms of elevated plus maze vs vehicle” value runs as follows: (psilocybin 0.5 mg/kg and higher, administered on its own) “either no changes in mouse behavior were observed, or increased anxiety-like behavior”; (psilocybin alone 0.1 mg/kg oral, tested 7-9 days after administration, 5 min) “no significant difference”; (psilocybin alone 0.5 mg/kg oral, tested 7-9 days after administration, 5 min) “significant reduction in open arm time”; (psilocybin alone 1 mg/kg oral, tested 7-9 days after administration, 5 min) “significant reduction in open arm time”.
Take `CC(/C=C/C=C(\C)C(=O)O[C@@H]1O[C@H](CO[C@@H]2O[C@H](CO)[C@@H](O)[C@H](O)[C@H]2O)[C@@H](O)[C@H](O)[C@H]1O)=C\C=C\C=C(C)\C=C\C=C(/C)C(=O)O[C@@H]1O[C@H](CO[C@@H]2O[C@H](CO)[C@@H](O)[C@H](O)[C@H]2O)[C@@H](O)[C@H](O)[C@H]1O` [crocin, Crocin]: the “time in open arms of elevated plus maze vs vehicle” value is, setting by setting: (crocin alone 30 mg/kg oral, tested 7-9 days after administration, 5 min) “did not show a significant beneficial effect on anxiety”; (crocin alone 50 mg/kg oral, tested 7-9 days after administration, 5 min) “did not show a significant beneficial effect on anxiety”.
